What was measured:
Assay type in all cases: in vivo, human
[1] = tested on: Prostate-specific antigen; assay: Serum prostate-specific antigen levels in a metastatic PCa patient; conditions: week 0 10.7 ng/ml
Experimental: (§1) Patient Information A hormone-naïve person with newly diagnosed metastatic PCa was consented and was enrolled into the study. They were initiated on combined androgen blockade with bicalutamide and goserelin acetate. Magnetic resonance imaging scans were acquired at weeks 0 (baseline), 2, and 8 following treatment initiation which were used to generate the Functional Diffusion Maps at the 2 and 8 week time intervals. Due to pain and pathologic fracture, the patient was also treated with palliative radiation therapy encompassing the sacrum and ilium at 2 weeks post initiation of androgen deprivation therapy.
Clinical Correlates Serum samples were obtained at weeks 0 (baseline), 2, and 8 following treatment initiation. Prostate-specific antigen levels were quantified and expressed in […] of plasma.

[2] = tested on: metastatic PCa osseous lesions; assay: fDM and mean ADC diffusion MRI of osseous lesions in a metastatic PCa patient; conditions: for mean ADC, femoral head lesion: baseline 74.5×10^−6; for mean ADC, sacral lesion: baseline 110.8×10^−6; for mean ADC, ilium lesion: baseline 78.0×10^−6
Experimental: as §1
(§2) Magnetic Resonance Imaging Magnetic resonance imaging (MRI) examinations including diffusion-weighted and standard anatomic sequences were performed before and 2 weeks after initiation of therapy. MR imaging was performed on a 3-T scanner (Achieva model; Philips Medical Systems, Bothell, Wash.) using a quadrature body coil for transmission and a six-channel cardiac coil for reception. Standard sequences for depiction of anatomy and tumor extent included axial proton density (repetition time [TR]/echo time [TE]=2700/30 msec, two averages) turbo spin-echo and axial T2-weighted turbo spin-echo (TR/TE=7800/60 msec, two averages) with fat suppression through a short inversion time (TI=200 msec). Geometry for these sequences was as follows: field of view, 281 mm right/left by 200 mm anterior/posterior; thirty-eight 4-mm sections with a 1-mm gap; 256—232 acquisition matrix for proton density; and 248 —165 for T2-weighted scans. Diffusion-weighted scans were acquired using fat-suppressed, single-shot, spinecho, echo-planar imaging to reduce motion artifact and parallel imaging (SENSE factor=2) to reduce spatial distortion. Geometry of the diffusion-weighted scans was as follows: 350 mm right/left by 302 mm anterior/posterior; thirty 5-mm sections with a 1-mm gap; 200—172 acquisition matrix; TR/TE=2000/58 msec; and 8 averages for low (b=0 sec/mm2) and 16 averages for high (b=800 sec/mm2) diffusion-sensitivity scans. Apparent diffusion coefficient (ADC) maps were calculated in the routine manner given by the logarithm of the ratio of low-b and high-b images, then scaled by the inverse of b-value difference.
Diffusion Analysis Lesions in MR images acquired at weeks 2 and 8 were coregistered to their corresponding pretreatment MR images using an automatic algorithm based on maximizing mutual information. Registration was accomplished for each individual tumor located in the sacrum, ilium, and femoral head regions after the images were cropped to localize the registration to a limited region-of-interest (ROI) containing a single lesion. Lesions were manually contoured by a radiologist who defined the ROI by inspection of all available image data. Diffusion-average data were generated for weeks 0, 2 and 8 using the ROI contours of each of the three lesions and the mean change in diffusion values were calculated. Computation of fDMs for each lesion at weeks 2 and 8 was accomplished by comparison of voxels within the tumor at weeks 2 and 8 with the pretreatment values (week 0) as previously described (see, e.g., Moffat B A, et al., (2005) Proc Natl Acad Sci USA 102 (15), 5524-5529; Hamstra D A, et al., (2005) Proc Natl Acad Sci USA 102 (46), 16759-16764; each herein incorporated by reference in their entireties) using MIAMI Fuse (University of Michigan, Ann Arbor, Mich.) (see, e.g., Meyer C R, et al., (1997) Med Image Anal 1 (3), 195-206; herein incorporated by reference in its entirety). The tumor was segmented into three different categories wherein the red voxels represent regions within the tumor where ADC values increased (>[…]), the blue voxels represent a decreased ADC (<[…]), and the green regions represent tumor diffusion values that were within these thresholds (e.g., unchanged). […]

[3] = tested on: metastatic PCa osseous lesions; assay: Tumor volume by T2-weighted MRI in a metastatic PCa patient; conditions: for Tumor volume, Ilium: pretreatment 2.34; for Tumor volume, Femoral Head: pretreatment 52.97; for Tumor volume, Sacrum: pretreatment 68.29
Experimental: as §1, §2
At the time of initial diagnosis, the patient underwent Tc-99 m MDP BS to ascertain the extent of skeletal involvement. […] After receiving androgen deprivation therapy for 7 weeks, increased sclerosis was observed by CT (FIG. 9B, arrow). […] Further characterization of the lesions was achieved by MRI. […] Tumor volumes were quantified using ROI analysis of each of the three tumors evaluated using T2-weighted MR images at weeks 0, 2, and 8 post-treatment initiation. […] Overall, tumor volume measurements were unable to detect significant perturbations in tumor size in the 8-week timeframe following treatment initiation.

[4] = 8 weeks posttreatment, palliative radiation at 2 weeks
[5] = 8 weeks, palliative radiation at 2 weeks
[6] = Week 3 (so in the source), palliative radiation at 2 weeks

bicalutamide and goserelin acetate
PSA level ([1]; week 2 posttreatment): 1.3 ng/mL
PSA level ([1]; week 8 posttreatment): 0.3 ng/mL
mean percentage change from baseline of mean ADC, three lesions ([2]; 2 weeks): −0.7±4.7%
decrease of mean ADC with respect to pre-therapy baseline, three lesions ([2]; 2 weeks post-therapy (FIG. 12 legend)): 0.7±4.8%
fDM, tumor volume with increased ADC, ilium lesion ([2]; 2 weeks posttreatment): 24.5%
fDM, tumor volume with increased ADC, sacral lesion ([2]; 2 weeks posttreatment): 26.4%
decrease in mean ADC, sacral lesion ([2]; 2 weeks vs baseline): ~10%
mean ADC, femoral head lesion ([2]; 2 weeks): 77.8×10^−6 mm^2/sec
mean ADC, sacral lesion ([2]; 2 weeks): 99.8×10^−6 mm^2/sec
mean percentage change (increase) from baseline of mean ADC, three lesions ([2]; 8 weeks): 8.3±4.3%
fDM, tumor volume with increased ADC, femoral head lesion ([2]; 8 weeks posttreatment): 36.4%
fDM, tumor volume with increased ADC, ilium lesion [2, 4]: 47.1%
fDM, tumor volume with increased ADC, sacral lesion [2, 4]: 29.0%
increase in mean ADC above baseline, sacral lesion ([2]; 8 weeks vs baseline): ~5%
increase in mean ADC, ilium lesion ([2]; 8 weeks vs baseline): 16.7%
mean ADC, femoral head lesion ([2]; 8 weeks): 76.8×10^−6 mm^2/sec
mean ADC, ilium lesion [2, 5]: 91.1×10^−6 mm^2/sec
mean ADC, sacral lesion [2, 5]: 116.2×10^−6 mm^2/sec
average fDM percent of tumor volume with increased diffusion, three lesions ([2]; week 2): 24±1.6%
mean ADC, ilium lesion ([2]; week 2): 80.7×10^−6 mm^2/sec
fDM, volume with significant increase in ADC, femoral head lesion ([2]; week 2 posttreatment): 21.1%
average fDM percent of tumor volume with increased diffusion, three lesions ([2]; week 8): 38±5.2%
Tumor volume, Ilium ([3]; Week 2): 2.76 cm^3
Tumor volume, Femoral Head ([3]; Week 2): 51.52 cm^3
Tumor volume, Sacrum ([3]; Week 2): 69.46 cm^3
Tumor volume, Ilium [3, 6]: 2.56 cm^3
Tumor volume, Femoral Head ([3]; Week 3 (so in the source)): 51.35 cm^3
Tumor volume, Sacrum [3, 6]: 72.21 cm^3
